From patent publication US20100311107A1, “Ultra-High Throughput Screening of Natural Products” (priority 2004, published 2010)
Read-outs that look alike come from different tables or passages of the source. Numbered stars: 1 amine (or outer) side, 2 acyl side, 3 side chain; on linkers, the order of the positions; unused ones are H or OH. Bridge positions count the residues as written; N and C are the ends. Square brackets hold non-standard residues; d marks the D form. Peptide text beside a SMILES is read from it. I, II: the chains in the order shown. Actinocin(9to1) = Cc1c2oc3c(C)ccc(C(=O)[*:1])c3nc-2c(C(=O)[*:2])c(N)c1=O; NMeV = CN[C@H](C(=O)O)C(C)C; Sar = CNCC(=O)O

Tests used:
Assay type in all cases: cell-based, Escherichia coli
screening strain CM166 = assay: macrodroplet screening assay, zones of inhibition; conditions: soil actinomycetes in macrodroplets, DNA and biotin in medium
Experimental: After the period of incubation as described above, macrodroplets can be screened for biological activities by a unique technique termed macrodroplet screening assay. The biological activities of compounds secreted by the encapsulated microorganisms and contained within the macrodroplet beads can be detected by, for example, cell growth inhibition. In general, screening strains should first be cultured to a certain cell density (proper OD reads as described in section 5.3.3.) in liquid medium and then plated in semi-solid medium matrix (0.8%), which overlays the macrodroplet beads (see FIG. 1, item 140. Item 145 of FIG. 1 represents the top layer of semi-solid medium matrix containing a selected screening strain). After being incubated overnight, the screening strain can grow throughout the matrix, except in areas where macrodroplet beads release metabolites, which prevent the growth of the screening strain. The inhibition of cell growth may result in zones of inhibition around these beads (see item 155, FIG. 1), which usually can be detected visually.
Next, microorganisms from the soil samples collected as described above were encapsulated to form macrodroplets populated by a single microorganism in each bead, according to the pre-determined cfu count of the particular soil extract. In this process, an aliquot of the soil bacteria suspension was diluted in 10% glycerol to generate an inoculum of the required density. This adjusted suspension was then mixed with nutrient medium, counterselective agents (see above) and 1.4% sodium alginate and the resultant mixture processed through an Inotech Encapsulator® Research device, to produce gel-beads (called macrodroplets) by the formation of droplets of liquid from a fluid stream. The droplets solidified into gel-beads as they came into contact with a calcium chloride bath, which also contained nutrient medium and counterselective agents. After a defined hardening time the macrodroplets were washed to remove excess calcium chloride and to stop the hardening process. Smidsrod and Skjak-Braek, 1990, “Alginate as immobilization matrix for cells,” Trends Biotechnol. 8(3):71-8. Cured macrodroplets containing microorganisms were then spread in dishes from which excess fluid was removed. The macrodroplets subsequently allowed growth of the target organisms and production of secondary metabolites such as anti-microbial agents. Macrodroplets were spread evenly over the plate using a sterile spreader (5,000 particles per plate) and incubated at 28-30° C. for 7 days to allow the growth of the microorganism within, and the production of secondary metabolites.
CM166 (see section 5.3.1.b for details) was used as the test strain in this example. Two to three single colonies of CM166 were inoculated into a shake flask containing 10 ml of MHB medium with 40 μg/ml Tmp and 200 μg/ml Amp. After the cells were cultured at 35° C. for 2-3 hours, an OD reading was performed. If the OD reading was above 0.1 (equivalent to 2×10^8 cfu), the screening strain was ready for dilution. Otherwise, the strain needed to be incubated for longer time until the OD read reached >0.1. Medium for the macrodroplet assay (in 1 L Duran, add 10.5 g MHB power, 4 g agar (0.8%), and 1 g DNA) was autoclaved and cooled to ˜45° C., and ampicillin (25 mg/ml), tetracycline (10 mg/ml), daptomycin (20 mg/ml) and biotin (0.1 μg/ml) were added, together with 2.5 ml screening strain. […]

[1] = system: lacZ reporter gene of the screening strains (CM191, CM242); assay: S-Gal staining assay on solid medium; conditions: for lacZ reporter gene expression (S-Gal, blue-colored rings): screening strains on solid medium, drug-impregnated disks, PETG to suppress background
Source text: The screening strains' responses to DNA damaging agents were further confirmed by S-Gal staining assay. When mitomycin C and streptonigrin (both were well-known DNA damaging drugs) and S-Gal, the indicator, were applied to the screening strains growing on solid medium, blue-colored rings were visible around colonies in drug-impregnated disks. […] Actinomycin D was an exception. CM242 was not sensitive to this drug, although it disrupts DNA structure. PETG (2-phenyethyl B-D-thiogalactoside, Sigma, St Louis Mo.), was used in this experiment to suppress unspecific background activity.

[2] = system: E. coli screening strain CM400; design: unit not given here
Experimental: (§1) The level of drug resistance of screening strains CM400 and CM435 was evaluated by standard MIC assay in MHB liquid medium and the results are summarized in Table 13. According to the MIC results, CM435 is hypersensitive to Bleomycin, Daunorucibin, Coumermycin A1 and Erythromycin. Screening strain CM435 and others, which are hypersensitive to certain types of antimicrobial agents, are advantageous in detecting bioactive compounds with low concentration in the screening system.

E. coli MG1655 = system: E. coli MG1655; design: unit not given here
Experimental: (§2) The screening strain, DR1234, was established after all desired drug-resistant genes listed in Table 5 had been delivered into the parent E. coli strain, MG1655, by methods described above. Its level of drug resistance was analyzed by the standard minimum inhibitory concentration (MIC) assay in MHB liquid medium (Chantot, et al., 1986, “Antibacterial activity of roxithromycin: a laboratory evaluation,” J. Antibiot, 39(5):660-8) and the result was summarized in Table 7.
(§3) The level of drug resistance of CM166 was estimated by MIC assay carried out in MHB liquid medium and the results were summarized in Table 9. CM166 is resistant to antibacterial agents whose resistant genes have been incorporated into the strain, but not to other antibacterial drugs whose resistant genes are not incorporated.
(§4) The level of drug-resistance of screening strain DR1212 was analyzed by standard MIC assay in MHB liquid medium and the result was summarized in Table 11. Similar to screening strains, DR1234 and CM166, DR1212 is also resistant to drugs whose resistant genes have been introduced.
(§5) The level of drug resistance of these screening strains (both intermediates and finals) was evaluated by standard MIC assay in MHB liquid medium and the result of Strain CM242 is summarized in Table 12.
as §1

[3] = system: E. coli screening strain DR1212; design: unit not given here
Experimental: as §4

[4] = system: E. coli screening strain DR1234; design: unit not given here
Experimental: as §2

[5] = system: E. coli screening strain CM242; design: unit not given here
Experimental: as §5

[6] = system: E. coli screening strain CM166; design: unit not given here
Source text: as §3

[7] = system: E. coli screening strain CM435; design: Minimal inhibitory concentrations (MIC90) CM435: unit not given here
[8] = system: BW25113 strain containing drug-resistant genes inserted into the bioA locus; assay: drug resistance characterization of strain with Tn7 cassette in bioA locus; conditions: for resistance conferred: streptothricin at 5 ug/ml, spectinomycin at 100 ug/ml; for resistance of strains having the promoter substitute: sat promoter replaced by Ptrc
Source text: Therefore, a functional copy was introduced by homologous recombination as described hereafter. The drug-resistant gene of interest was synthesized in vitro using PCR with oligonucleotide primers that contained homologous sequences to the target genes and an additional ˜50 by homologous to a particular chromosomal site of the recipient strain. For instance, to insert the Tn7-associated resistance gene cassette dhfrI-sat-aadA into the bioA gene locus of the recipient strain, the primers listed in Table 6 were used. The capitalized portions of these primers hybridized to Tn7 template DNA upstream and downstream of the resistance gene cassette and allowed PCR amplification of the target fragment (Roche (Mannheim, Germany) Long Template PCR System). The ˜50 by additional sequence of these oligonucleotides (low case) afforded regions of homology with the chromosomal target site of the recipient, in this instance, the bioA gene locus (Table 6). The PCR product of the above reaction was introduced into a specialized strain, BW25113 (obtained from the E. coli Genetic Stock Center, strain # 7739) by standard electroporation following the manufacturer's instruction of BioRad (Hercules, Calif.) Gene Pulser, model #1652076, for standard electroporation of E. coli. Double-crossover homologous recombination, mediated by the bacteriophage lambda Red recombinase present in the strains pKD46 [#7630], pKD78 [#7989] or pKD119 [#7990], occurred between the “bioA” locus of the recipient strain and the PCR products via their homologous regions designed in the PCR primers as described above, resulting in the insertion of the drug resistance cassette into the bioA locus of the chromosome (FIG. 3, item 315). […] Once verified by drug resistance characterization and diagnostic PCR assay (see above), the drug resistance-encoding locus from the BW25113/pKD46 strain was introduced into the same locus of the recipient screening strain by standard P1 transduction as described above, also see FIG. 3, item 310.
To increase the gene expression level, the T7 promoter was used to replace the weak promoter of sat gene.

Compound	Minimal inhibitory concentrations (MIC90) CM400 ([2]; Table 13, MHB medium)	Minimal inhibitory concentrations (MIC90) MG1655 (E. coli MG1655; Table 7, MHB medium)	Minimal inhibitory concentrations (MIC90) MG1655 (E. coli MG1655; Table 9, MHB medium)	Minimal inhibitory concentrations (MIC90) MG1655 (E. coli MG1655; Table 11, MHB medium)	Minimal inhibitory concentrations (MIC90) MG1655 (E. coli MG1655; Table 13, MHB medium)	Minimal inhibitory concentrations (MIC90) MG1655 (E. coli MG1655; second Table 12, MHB medium)	Minimal inhibitory concentrations (MIC90) DR1212 ([3]; Table 11, MHB medium)	Minimal inhibitory concentrations (MIC90) DR1234 ([4]; Table 7, MHB medium)	Minimal inhibitory concentrations (MIC90) CM242 ([5]; second Table 12, MHB medium)	Minimal inhibitory concentrations (MIC90) CM166 ([6]; Table 9, MHB medium)	Minimal inhibitory concentrations (MIC90) CM435 ([7]; Table 13, MHB medium)	also measured
O=C(O)/C=C/CC[C@@H]1SC[C@@H]2NC(=O)N[C@@H]21 [lydimycin]												bioactive compound of actinomycete strains selected with CM166 (screening strain CM166): bioactive
Cc1c2oc3c(C)ccc(C(=O)N[C@@H]4C(=O)N[C@H](C(C)C)C(=O)N5CCC[C@H]5C(=O)N(C)CC(=O)N(C)[C@@H](C(C)C)C(=O)O[C@@H]4C)c3nc-2c(C(=O)N[C@@H]2C(=O)N[C@H](C(C)C)C(=O)N3CCC[C@H]3C(=O)N(C)CC(=O)N(C)[C@@H](C(C)C)C(=O)O[C@@H]2C)c(N)c1=O [Actinomycin D] (I: T[dV]P[Sar][NMeV] / II: T[dV]P[Sar][NMeV]; ester I:1-I:C, II:1-II:C; linker I:N-II:N via Actinocin(9to1))	256	200	200	200	256	200	50.0	100	200	50	256	sensitivity of CM242 reporter to the drug ([1]; CM242, S-Gal staining): not sensitive
CN[C@@H]1[C@H](O)[C@H](NC)[C@H]2O[C@@]3(O)C(=O)C[C@@H](C)O[C@H]3O[C@@H]2[C@H]1O [Spectinomycin]	>64	6.3-12.5	6.3-12.5	6.3-12.5	16	6.3-12.5	>400	>400	>400	>400	>64	resistance conferred ([8]; native sat promoter): not; resistance of strains having the promoter substitute [8]: resistant
COc1cc(Cc2cnc(N)nc2N)cc(OC)c1OC [Trimethoprim]												lacZ reporter gene expression (S-Gal, blue-colored rings) [1]: not expressed; Minimal inhibitory concentrations (MIC90) CM400 [2]: >64; Minimal inhibitory concentrations (MIC90) DR1212 [3]: >400; resistance conferred, concentration ([8]; BW25113 with Tn7 cassette in bioA, native sat promoter): at least 10 ug/ml; Minimal inhibitory concentrations (MIC90) DR1234 [4]: >400; Minimal inhibitory concentrations (MIC90) CM242 [5]: >400; Minimal inhibitory concentrations (MIC90) CM166 [6]: >400; Minimal inhibitory concentrations (MIC90) CM435 [7]: >64
Streptothricin	>64	0.4-1.6	0.4-1.6	0.4-1.6	2	0.4-1.6	200	400	>400	400	64	resistance conferred ([8]; native sat promoter): not; resistance of strains having the promoter substitute [8]: resistant
CCn1cc(C(=O)O)c(=O)c2ccc(C)nc21 [Nalidixic Acid]	>64	6.3	6.3	6.3	8	6.3	50	400	>400	800	>64	lacZ reporter gene expression (S-Gal, blue-colored rings) [1]: not expressed
Neomycin	16	0.8	0.8	0.8	2	0.8	25	100	50	25	8	
Gentamicin	>64	0.8	0.8	0.8	1	0.8	200	400	100	>400	>64	
[H]/N=C(/N)N[C@H]1[C@H](O)[C@@H](O)[C@H](O[C@@H]2O[C@@H](C)[C@](O)(C=O)[C@H]2O[C@@H]2O[C@@H](CO)[C@H](O)[C@@H](O)[C@@H]2NC)[C@@H](N/C(N)=N\[H])[C@@H]1O [Streptomycin]	>64	3.2	3.2	3.2	4	3.2	>400	>400	>400	>400	>64	
